This note sets out measurements from ChEMBL document CHEMBL2412997, “Determination of the binding mode and interacting amino-acids for dibasic H3 receptor antagonists” (Bioorg Med Chem, 2013).

What is called Ki is the dissociation constant of the complex between target and ligand, obtained from inhibition or displacement. A high value points to weaker binding.

Molecules are shown by their SMILES.

In one assay the target is T1, Histamine H3 receptor (Homo sapiens, UniProt Q9Y5N1). Description: Binding affinity to histamine H3 receptor (unknown origin).
T1 sequence (Q9Y5N1 whole entry): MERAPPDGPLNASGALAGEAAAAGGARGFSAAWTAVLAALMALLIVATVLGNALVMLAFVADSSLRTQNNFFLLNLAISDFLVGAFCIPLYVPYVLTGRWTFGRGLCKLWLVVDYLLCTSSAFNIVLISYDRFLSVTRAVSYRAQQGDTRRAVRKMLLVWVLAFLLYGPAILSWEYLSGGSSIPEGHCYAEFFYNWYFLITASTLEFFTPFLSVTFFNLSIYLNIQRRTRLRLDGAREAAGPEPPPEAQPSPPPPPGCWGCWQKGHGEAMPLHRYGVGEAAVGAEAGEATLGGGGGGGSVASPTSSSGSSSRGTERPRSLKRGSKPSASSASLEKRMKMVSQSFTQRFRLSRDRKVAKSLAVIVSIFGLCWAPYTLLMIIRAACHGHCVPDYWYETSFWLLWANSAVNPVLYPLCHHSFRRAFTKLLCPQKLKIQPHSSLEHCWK
`N#CC(C#N)=C1N(CCCCN2CCCCC2)CCN1CCCN1CCCCC1` showed a Ki of 61 nM. `c1cc(-c2ccc(CN3CCCCC3)cc2)ccc1CN1CCCCC1` came in with a Ki of 0.3 nM.

Take `CCN1CCCc2cccc(OCCCN3CCCCC3)c21`: the inhibition constant (Ki) worked out at 1000 nM. Still for that read-out and setting: the value for `CCN1CCCc2c(OCCCN3CCCCC3)cccc21` was 1000 nM; that for `c1cc(-c2ccc(CCN3CCCCC3)cc2)ccc1CCN1CCCCC1` was 1.2 nM; that for `N#CC(C#N)=C1N(CCCCN2CCCCC2)CCN1CCCCN1CCCCC1` was 56 nM.

The next assay has as its target T1, Histamine H3 receptor. Description: Displacement of [125I]iodoproxyfan from histamine H3 receptor (unknown origin) expressed in CHO cells. The class given is cell-based. A general note: Displacement assays read how much labelled ligand stays bound in the presence of the test substance.
As to `CN1CCN(c2ccc(-c3ccc(OCCCN4CCCCC4)cc3)cc2)CC1`, the affinity corresponds to a Ki of 0.23 nM. As for `c1cc(-c2ccc(OCCCN3CCCCC3)cc2)ccc1CCCN1CCCCC1`, affinity was put at a Ki of 0.17 nM. The same measure, in the same setting: the value for `c1cc(OCCCN2CCCCC2)ccc1Cc1ccc(OCCCN2CCCCC2)cc1` was 0.51 nM; that for `C(=C/c1ccc(-c2ccc(OCCCN3CCCCC3)cc2)cc1)/CN1CCCCC1` was 0.057 nM. Same read-out and setting: with `c1cc(OCCCN2CCCCC2)ccc1CCCc1ccc(OCCCN2CCCCC2)cc1` the figure was 0.9 nM; with `c1cc(CN2CCCCC2)cc(-c2ccc(OCCCN3CCCCC3)cc2)c1`, 0.549 nM; with `O=C(CCc1ccc(OCCCN2CCCCC2)cc1)c1ccc(OCCCN2CCCCC2)cc1`, 0.64 nM. As to `c1cc(-c2ccc(OCCN3CCCCC3)cc2)ccc1OCCCN1CCCCC1`, affinity was put at a Ki of 0.49 nM. `c1ccc(-c2ccc(OCCCN3CCCCC3)cc2)c(CN2CCCCC2)c1` displayed a Ki of 0.045 nM.

The compound `c1cc(OCCCN2CCCCC2)ccc1CCc1ccc(OCCCN2CCCCC2)cc1` registered a Ki of 1.21 nM.

With `C(=C\c1ccc(-c2ccc(OCCCN3CCCCC3)cc2)cc1)/CN1CCCCC1`, the affinity corresponds to a Ki of 0.655 nM. `c1cc(-c2ccc(OCCCN3CCCCC3)cc2)ccc1OCCCCN1CCCCC1` came in with a Ki of 0.13 nM. For `FC1(F)CCN(CCCOc2ccc(-c3ccc(OCCCN4CCCCC4)cc3)cc2)CC1`, affinity was put at a Ki of 9.31 nM. As for `C(#Cc1ccc(-c2ccc(OCCCN3CCCCC3)cc2)cc1)CN1CCCCC1`, the inhibition constant (Ki) came to 0.67 nM. For the compound `O=C(/C=C/c1ccc(OCCCN2CCCCC2)cc1)c1ccc(OCCCN2CCCCC2)cc1`, the Ki came out at 0.53 nM.

Consider `c1cc(-c2ccc(OCCCN3CCCCC3)cc2)ccc1CN1CCCCC1`, for which the Ki was 1.64 nM.
